Assay results reported in ChEMBL document CHEMBL1122062, “Inhibitors of adenosine deaminase. Studies in combining high-affinity enzyme-binding structural units. erythro-1,6-Dihydro-6-(hydroxymethyl)-9-(2-hydroxy-3-nonyl)purine and erythro-9-(2-hydroxy-3-nonyl)purine” (J Med Chem, 1982).

Legend:
Adenosine deaminase [1] = biological target: T1, Adenosine deaminase (Bos taurus, UniProt P56658); assay: Ability to inhibit calf intestinal adenosine deaminase (ADA).
T1 sequence (P56658 whole entry): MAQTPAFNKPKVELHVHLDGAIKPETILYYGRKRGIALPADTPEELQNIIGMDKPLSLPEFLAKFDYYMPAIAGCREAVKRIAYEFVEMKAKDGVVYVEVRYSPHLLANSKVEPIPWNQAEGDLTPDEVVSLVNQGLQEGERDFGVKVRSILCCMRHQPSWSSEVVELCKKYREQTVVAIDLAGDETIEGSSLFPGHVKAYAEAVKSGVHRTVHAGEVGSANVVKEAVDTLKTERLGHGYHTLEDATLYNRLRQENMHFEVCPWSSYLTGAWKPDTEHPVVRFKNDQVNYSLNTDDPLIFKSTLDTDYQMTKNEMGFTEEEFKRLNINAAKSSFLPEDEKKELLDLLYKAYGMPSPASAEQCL

[2] = Upper limit of relative enzyme affinity of compound to the substrate.
Adenosine deaminase [3] = biological target: T1, Adenosine deaminase; assay: Ability to inhibit calf intestinal adenosine deaminase (ADA); No data
[4] = biological target: T2, Adenosine deaminase (Bos taurus) (UniProt P56658)
T2 sequence (whole entry): T1 sequence (P56658 whole entry)

Row | Ki (Adenosine deaminase [1]) | Km/Ki [2] | Ki (Adenosine deaminase [3]) | REA [4] | Compound
1 | 680 nM | 36 |  |  | CCCCCCC(C(C)O)n1cnc2cncnc21 (stereo unspecified)
2 |  |  | 1.3 nM |  | CCCCCC[C@@H]([C@@H](C)O)n1cnc2c(N)ncnc21 [EHNA]
3 |  |  |  | 2.8e+06 | OC[C@H]1O[C@@H](n2cnc3c2N=CNC[C@H]3O)C[C@@H]1O
4 |  | 2.1 | 12000 nM |  | CCCCCCC(C(C)O)n1cnc2c1N=CNC2CO (stereo unspecified)
